Experiments:
[1] = Crystal; Adiabatic calorimetry
[2] = molar heat capacity at constant pressure; settings: 101.33 kPa, Vacuum adiabatic calorimetry
[3] = Molar enthalpy of transition or fusion; settings: Crystal; Adiabatic calorimetry

c1ccc(CSSCc2ccccc2)cc1 [1,4-diphenyl-2,3-dithiabutane]
Settings | Molar enthalpy of transition or fusion [kcal/mol] | Triple point temperature [K]
[1] | – | 341.72
[3] | 10.75 | –

[2]
Settings | molar heat capacity at constant pressure [J/K/mol]
80 K, Crystal | 108.82
80.3 K, Crystal | 108.33
84.06 K, Crystal | 111.79
85 K, Crystal | 111.44
87.01 K, Crystal | 113.48
90 K, Crystal | 116.01
90.01 K, Crystal | 116.34
92.93 K, Crystal | 118.76
95 K, Crystal | 122.1
95.91 K, Crystal | 122.02
99.41 K, Crystal | 127.8
100 K, Crystal | 129.33
103.24 K, Crystal | 135.01
105 K, Crystal | 137.39
106.95 K, Crystal | 141.28
110 K, Crystal | 145.99
110.69 K, Crystal | 147.39
114.47 K, Crystal | 153.91
115 K, Crystal | 154.9
118.16 K, Crystal | 160.1
120 K, Crystal | 163.94
121.87 K, Crystal | 169.57
125 K, Crystal | 172.98
125.68 K, Crystal | 176.87
129.35 K, Crystal | 179.77
130 K, Crystal | 181.89
132.96 K, Crystal | 185.92
135 K, Crystal | 190.59
136.61 K, Crystal | 192.1
140 K, Crystal | 199.02
140.35 K, Crystal | 197.02
144.38 K, Crystal | 205.28
145 K, Crystal | 207.16
147.99 K, Crystal | 211.7
150 K, Crystal | 214.97
151.7 K, Crystal | 217.62
155 K, Crystal | 222.48
155.35 K, Crystal | 222.51
158.92 K, Crystal | 228.58
160 K, Crystal | 229.68
162.44 K, Crystal | 233.74
165 K, Crystal | 236.6
165.91 K, Crystal | 238.97
169.42 K, Crystal | 243.63
170 K, Crystal | 243.29
172.99 K, Crystal | 248.31
175 K, Crystal | 249.78
176.5 K, Crystal | 252.64
179.96 K, Crystal | 257.05
180 K, Crystal | 256.1
183.38 K, Crystal | 260.66
185 K, Crystal | 262.31
186.84 K, Crystal | 265.34
190 K, Crystal | 268.46
190.36 K, Crystal | 269.4
193.83 K, Crystal | 273.35
195 K, Crystal | 274.58
197.26 K, Crystal | 277.29
200 K, Crystal | 280.71
200.65 K, Crystal | 280.28
204 K, Crystal | 284.27
205 K, Crystal | 286.91
207.4 K, Crystal | 288.01
210 K, Crystal | 293.18
210.85 K, Crystal | 291.95
214.25 K, Crystal | 296.05
215 K, Crystal | 299.57
217.6 K, Crystal | 300.68
220 K, Crystal | 306.1
220.9 K, Crystal | 305.02
224.17 K, Crystal | 310.55
225 K, Crystal | 312.77
227.41 K, Crystal | 316.71
230 K, Crystal | 319.61
230.64 K, Crystal | 324.45
234.1 K, Crystal | 331.98
235 K, Crystal | 326.59
237.58 K, Crystal | 333.36
240 K, Crystal | 333.73
240.9 K, Crystal | 338.86
244.3 K, Crystal | 341.63
245 K, Crystal | 341.01
247.7 K, Crystal | 342.44
250 K, Crystal | 348.41
251 K, Crystal | 347.57
254.37 K, Crystal | 353.48
255 K, Crystal | 355.91
257.79 K, Crystal | 359.5
260 K, Crystal | 363.48
261.22 K, Crystal | 363.54
264.69 K, Crystal | 369.67
265 K, Crystal | 371.1
268.17 K, Crystal | 374.81
270 K, Crystal | 378.73
271.64 K, Crystal | 381.1
275 K, Crystal | 386.35
275.11 K, Crystal | 386.26
278.65 K, Crystal | 391.99
280 K, Crystal | 393.93
282.26 K, Crystal | 396.6
285 K, Crystal | 401.44
285.84 K, Crystal | 402.1
289.39 K, Crystal | 410.38
290 K, Crystal | 408.86
292.9 K, Crystal | 417.2
295 K, Crystal | 416.2
296.45 K, Crystal | 417.2
298.15 K, Crystal | 420.77
299.98 K, Crystal | 422.24
300 K, Crystal | 423.44
303 K, Crystal | 427.75
303.49 K, Crystal | 427.76
307 K, Crystal | 437.99
310.49 K, Crystal | 432.45
313.97 K, Crystal | 443.61
317.47 K, Crystal | 440.2
320.92 K, Crystal | 443.39
324.15 K, Crystal | 448.33
327.24 K, Crystal | 479.87
330.68 K, Crystal | 494.5
334.08 K, Crystal | 565.94
337.09 K, Crystal | 842.59
339.29 K, Crystal | 2123.3
340.75 K, Crystal | 6689.9
344.92 K, Liquid | 1138.3
350.93 K, Liquid | 545.43
355 K, Liquid | 545.41
355.68 K, Liquid | 550.14
359.31 K, Liquid | 554.64
360 K, Liquid | 555.11
362.99 K, Liquid | 559.12
365 K, Liquid | 561.67
366.65 K, Liquid | 562.71
370 K, Liquid | 564.76
370.29 K, Liquid | 565.83
373.91 K, Liquid | 569.68
375 K, Liquid | 580.96
377.39 K, Liquid | 643.17

— the NIST ThermoML archive (doi:10.1016/j.tca.2007.05.014)
